In brackets after ≈: the same amount, converted by molar mass.
Assays:
solubility in water = type: physicochemical
[1] = test system: Staphylococcus aureus ATCC 6538; experiment: bactericidal activity by serial dilution in Brain Heart Infusion Broth (MIC and MMC), S.a.; type: cell-based; conditions: 24 hours; for MIC: ATCC6538, 37° C., read-out: Minimal Inhibitory Concentration (MIC); for MBC: ATCC6538, sub-culture on Tryptone Soy Agar, 37° C., read-out: Minimal Microbiocidal Concentration (MMC)
Experimental: (§1) (A) The bactericidal activity of the compounds of the invention has been determined on various microorganisms, as hereinafter described.
(§2) Serial dilutions of the test and reference compounds are prepared in Brain Heart Infusion Broth (Oxoid CM225) in two-fold steps from 1000 μg/ml down to 0.5 μg/ml.
(§3) The test organisms are cultured on Tryptone Soy Agar (TSA, Oxoid CM131) and checked for viability and purity. Standardized inocula are then ppepared by inoculating slopes of TSA and incubating at 37° C. for 24 hours. The resultant bacterial growth is then removed by the addition of sterile physiological saline and shaking with glass beads. The suspensions of organisms are then standardized to give 50% transmission at […] on an SP600 Spectrophotometer. Calibration curves show this to yield approximately 10^8 colony forming units per ml.
(§4) 0.1 ml aliquots of these suspensions are then used to inoculate each of the prepared serial dilutions of the compounds in Brain Heart Infusion Broth.
(§5) The sets of dilutions are incubated at 37° C. for 24 hours and then inspected for the presence or absence of growth as shown by turbidity of the medium. The lowest concentration showing no growth of the test organism is recorded as the Minimal Inhibitory Concentration (MIC) of the compound for that organism.
(§6) Each of the tubes showing no growth are then sub-cultured onto plates of Tryptone Soy Agar and incubated at 37° C. for 24 hours. The plates are then inspected for the presence or absence of growth at the inoculation points. […] MIC and MMC are expressed in μg/ml.
(§7) The results are presented in the following table, in comparison with those for two reference compounds, nitrofuroxazide and pipemidic acid. The abreviations used in the table have the following meanings:
S.a. Staphylococcus aureus

[2] = solubility in dimethylsulfoxide; type: physicochemical
[3] = test system: Escherichia coli NCTC 8196; experiment: bactericidal activity by serial dilution in Brain Heart Infusion Broth (MIC and MMC), E.c.; type: cell-based; conditions: 24 hours; for MIC: NCTC8196, 37° C., read-out: Minimal Inhibitory Concentration (MIC); for MBC: NCTC8196, sub-culture on Tryptone Soy Agar, 37° C., read-out: Minimal Microbiocidal Concentration (MMC)
Experimental: as §1, §2, §3, §4, §5, §6
(§8) The results are presented in the following table, in comparison with those for two reference compounds, nitrofuroxazide and pipemidic acid. The abreviations used in the table have the following meanings: […]

[4] = test system: Proteus mirabilis NCTC 8559; experiment: bactericidal activity by serial dilution in Brain Heart Infusion Broth (MIC and MMC), P.m.; type: cell-based; conditions: 24 hours; for MIC: NCTC8559, 37° C., read-out: Minimal Inhibitory Concentration (MIC); for MBC: NCTC8559, sub-culture on Tryptone Soy Agar, 37° C., read-out: Minimal Microbiocidal Concentration (MMC)
Experimental: as §1, §2, §3, §4, §5, §6, §8

[5] = test system: Shigella boydii NCTC 9328; experiment: bactericidal activity by serial dilution in Brain Heart Infusion Broth (MIC and MMC), S.b.; type: cell-based; conditions: 24 hours; for MIC: NCTC9328, 37° C., read-out: Minimal Inhibitory Concentration (MIC); for MBC: NCTC9328, sub-culture on Tryptone Soy Agar, 37° C., read-out: Minimal Microbiocidal Concentration (MMC)
Experimental: as §1, §2, §3, §4, §5, §6, §7
S.b. Shigella boydii NCTC 9328

[6] = test system: Pseudomonas aeruginosa ATCC 9027; experiment: bactericidal activity by serial dilution in Brain Heart Infusion Broth (MIC and MMC), P.a.; type: cell-based; conditions: 24 hours; for MIC: ATCC9027, 37° C., read-out: Minimal Inhibitory Concentration (MIC); for MBC: ATCC9027, sub-culture on Tryptone Soy Agar, 37° C., read-out: Minimal Microbiocidal Concentration (MMC)
Experimental: as §1, §2, §3, §4, §5, §6, §7
P.a. Pseudomonas aeruginosa

[7] = test system: Streptococcus pyogenes NCTC 8198; experiment: bactericidal activity by serial dilution in Brain Heart Infusion Broth (MIC and MMC), S.p.; type: cell-based; conditions: 24 hours; for MIC: NCTC8198, 37° C., read-out: Minimal Inhibitory Concentration (MIC); for MBC: NCTC8198, sub-culture on Tryptone Soy Agar, 37° C., read-out: Minimal Microbiocidal Concentration (MMC)
Experimental: as §1, §2, §3, §4, §5, §6, §7
S.p. Streptococcus pyogenes

[8] = test system: Salmonella enteritidis NCTC 6676; experiment: bactericidal activity by serial dilution in Brain Heart Infusion Broth (MIC and MMC), S.e.; type: cell-based; conditions: Salmonella enterica, 37° C., 24 hours; for MIC: read-out: Minimal Inhibitory Concentration (MIC); for MBC: sub-culture on Tryptone Soy Agar, read-out: Minimal Microbiocidal Concentration (MMC)
Experimental: as §1, §2, §3, §4, §5, §6, §7
S.e. Salmonella enteritidis

[9] = test system: Vibrio Cholerae, Vibrio parahemolyticus, Vibrio alginolyticus, Aeromonas hydrophila Sobria and Salmonella; experiment: bacteriostatic activity, preceding experiment (comparison within the series); type: cell-based; conditions: compared with the compounds of examples 1 to 5
Experimental: (B) The bacteriostatic activity of the compounds of the invention has also been searched against microorganisms more particularly related with gastro-enteritis.
This experiment was conducted in Mueller-Hinton gelose with tested compounds dissolved in dimethylsulfoxide (control dimethylsulfoxide was provided) at increasing concentrations from 0.01 to 100 μg. The strains used were Vibrio Cholerae (3 strains respectively from Europe, Africa and Conth-East-Asia), Vibrio parahemolyticus, Vibrio alginolyticus, Aeromonas hydrophila Sobria and Salmonella. Minimum inhibitory concentration was found for the 7 compounds of the invention, between 0.5 and 1 μg for the Salmonella strain and between 0.1 and 0.5 μg for the other strains, which denotes a strong bacteriostatic activity.

SMILES	solubility in water (solubility in water)	MIC [1] [µg/mL]	MBC [1] [µg/mL]	solubility in dimethylsulfoxide [2]	MIC [3] [µg/mL]	MBC [3] [µg/mL]	MIC [4] [µg/mL]	MBC [4] [µg/mL]	MIC [5] [µg/mL]	MBC [5] [µg/mL]	MIC [6] [µg/mL]	MBC [6] [µg/mL]	MIC [7] [µg/mL]	MBC [7] [µg/mL]	MIC [8] [µg/mL]	MBC [8] [µg/mL]	relative activity in preceding experiment [9]
O=C(O)c1cn(CC2CC2)c2c(F)cc(F)cc2c1=O [Example 4]	insoluble	64 (≈ 229 µM)	64 (≈ 229 µM)	soluble	64 (≈ 229 µM)	64 (≈ 229 µM)	1 (≈ 3.58 µM)	2 (≈ 7.16 µM)	32 (≈ 115 µM)	32 (≈ 115 µM)	8 (≈ 28.6 µM)	16 (≈ 57.3 µM)	4 (≈ 14.3 µM)	4 (≈ 14.3 µM)	2 (≈ 7.16 µM)	4 (≈ 14.3 µM)	
CCn1cc(C(=O)O)c(=O)c2cnc(N3CCNCC3)nc21 [Pip., Pipemidic acid, reference compound]		2 (≈ 6.59 µM)	250 (≈ 824 µM)		4 (≈ 13.2 µM)	4 (≈ 13.2 µM)	4 (≈ 13.2 µM)	8 (≈ 26.4 µM)	4 (≈ 13.2 µM)	4 (≈ 13.2 µM)	1 (≈ 3.3 µM)	16 (≈ 52.7 µM)	4 (≈ 13.2 µM)	125 (≈ 412 µM)	4 (≈ 13.2 µM)	8 (≈ 26.4 µM)	
O=C(N/N=C/c1ccc([N+](=O)[O-])o1)c1ccc(O)cc1 [Nif., Nifuroxazide, reference compound]		8 (≈ 29.1 µM)	8 (≈ 29.1 µM)		4 (≈ 14.5 µM)	4 (≈ 14.5 µM)	500 (≈ 1820 µM)	500 (≈ 1820 µM)	8 (≈ 29.1 µM)	8 (≈ 29.1 µM)	500 (≈ 1820 µM)	500 (≈ 1820 µM)	1 (≈ 3.63 µM)	1 (≈ 3.63 µM)	500 (≈ 1820 µM)	500 (≈ 1820 µM)	
O=C(O)c1cn(Cc2c(Cl)cccc2Cl)c2c(F)cc(F)cc2c1=O [Example 7]	insoluble	8 (≈ 20.8 µM)	8 (≈ 20.8 µM)	insoluble	1 (≈ 2.6 µM)	2 (≈ 5.21 µM)	2 (≈ 5.21 µM)	4 (≈ 10.4 µM)	16 (≈ 41.6 µM)	32 (≈ 83.3 µM)	8 (≈ 20.8 µM)	8 (≈ 20.8 µM)	32 (≈ 83.3 µM)	64 (≈ 167 µM)	2 (≈ 5.21 µM)	4 (≈ 10.4 µM)	less active
O=C(O)c1cn(CCF)c2c(F)cc(F)cc2c1=O [Example 2]	insoluble	4 (≈ 14.7 µM)	8 (≈ 29.5 µM)	insoluble	32 (≈ 118 µM)	32 (≈ 118 µM)	4 (≈ 14.7 µM)	8 (≈ 29.5 µM)	8 (≈ 29.5 µM)	16 (≈ 59 µM)	8 (≈ 29.5 µM)	8 (≈ 29.5 µM)	32 (≈ 118 µM)	32 (≈ 118 µM)	4 (≈ 14.7 µM)	8 (≈ 29.5 µM)	
O=C(O)c1cn(Cc2ccc([N+](=O)[O-])o2)c2c(F)cc(F)cc2c1=O [Example 5]	insoluble	16 (≈ 45.7 µM)	64 (≈ 183 µM)	soluble	64 (≈ 183 µM)	64 (≈ 183 µM)	16 (≈ 45.7 µM)	32 (≈ 91.4 µM)	32 (≈ 91.4 µM)	32 (≈ 91.4 µM)	2 (≈ 5.71 µM)	2 (≈ 5.71 µM)	8 (≈ 22.8 µM)	32 (≈ 91.4 µM)	125 (≈ 357 µM)	125 (≈ 357 µM)	
O=C(O)c1cn(COCCO)c2c(F)cc(F)cc2c1=O [Example 3]	insoluble	4 (≈ 13.4 µM)	8 (≈ 26.7 µM)	soluble	4 (≈ 13.4 µM)	8 (≈ 26.7 µM)	32 (≈ 107 µM)	32 (≈ 107 µM)	8 (≈ 26.7 µM)	8 (≈ 26.7 µM)	8 (≈ 26.7 µM)	16 (≈ 53.5 µM)	2 (≈ 6.68 µM)	4 (≈ 13.4 µM)	32 (≈ 107 µM)	32 (≈ 107 µM)	
O=C(O)c1cn(CC2CCCCC2)c2c(F)cc(F)cc2c1=O [Example 6]	insoluble	8 (≈ 24.9 µM)	16 (≈ 49.8 µM)	insoluble	64 (≈ 199 µM)	64 (≈ 199 µM)	8 (≈ 24.9 µM)	8 (≈ 24.9 µM)	8 (≈ 24.9 µM)	8 (≈ 24.9 µM)	4 (≈ 12.4 µM)	8 (≈ 24.9 µM)	16 (≈ 49.8 µM)	16 (≈ 49.8 µM)	4 (≈ 12.4 µM)	4 (≈ 12.4 µM)	less active
CCn1cc(C(=O)O)c(=O)c2cc(F)cc(F)c21 [Example 1, 1,4-dihydro-3-carboxy-6,8-difluoro-1-ethyl-4-oxo-quinoline]	insoluble	32 (≈ 126 µM)	32 (≈ 126 µM)	soluble	8 (≈ 31.6 µM)	8 (≈ 31.6 µM)	1 (≈ 3.95 µM)	2 (≈ 7.9 µM)	1 (≈ 3.95 µM)	1 (≈ 3.95 µM)	32 (≈ 126 µM)	64 (≈ 253 µM)	16 (≈ 63.2 µM)	32 (≈ 126 µM)	2 (≈ 7.9 µM)	4 (≈ 15.8 µM)	

From patent publication US4914110A, “Quinoline derivatives, their preparation and therapeutic compositions containing the same” (Societe de Conseils de Recherches et d'Applications …, priority 1988, dated 1990)
